Here are results for 1 molecule from patent US8642554B2, “Smac mimetic dimers and trimers useful as anti-cancer agents” (Joyant Pharmaceuticals, Inc., priority 2007, dated 2014).

The test system of one assay is HCC461 cells. The experiment in a line: Cell viability assay in HCC461 cells (WST-1). In kind it is cell-based. The following applies: HCC461, 48 h, 48 hrs incubation; Table 1 experiment. The protocol:
HCC461 cells plated in 96 well plates at 5×10^4/ml cell density are treated with 50× synthetic Smac mimetic compounds (final concentration range between 30 uM and 0.001 uM). After 48 hrs incubation at 37° C. and 5% CO2 viability of the cells are measured using Cell Proliferation Reagent WST-1 assay kit (Roche Cat #11 644 807 001).
WST-1 assay principle: The tetrazolium salts are cleaved to formazan by cellular enzymes. An expansion in the number of viable cells results in an increase in the overall activity of mitochondrial dehydrogenases in the samples. This augmentation in the enzyme activity leads to an increase in the amount of formazan dye formed, which directly correlates to the number of metabolically active cells in the culture. Quantification of the formazan dye produced by metabolically active cells by using a microplate (ELISA) reader at 420-480 nm.
(In general: Tetrazolium dyes change colour on reduction, which living cells bring about.)

For assay [1], the target named is truncated XIAP containing only BIR1, BIR2, and BIR3 domains (Homo sapiens, UniProt P98170). Description: Fluorescent polarization (FP) assay. In kind it is binding. The following applies: Table 1 experiment. As for the experimental part: Increasing concentrations of Smac compounds are incubated with 2 nM of labeled peptide (fluorescein labeled 10mer peptide with AVPI 4 amino acids at its N terminus-Alexa Fluor 488) and truncated XIAP containing only BIR1, BIR2, and BIR3 domains at room temperature for 1 hour. Fluorescence reading, indicative of the bound portion of the labeled peptide, is measured in milipolarization units (mP). The more compound added, less fluorescein labeled peptide bind to the protein due to the competitive binding and less fluorescence signal is released.
Based on this principle, we obtain the Ki value that evaluates compound's binding affinity.

The subject of assay [2] is Caspase3 activity in Hela S100 (blocked by IAPs). The experiment in a line: In vitro caspase-3 activation assay in Hela S100. The format is biochemical. Particulars: 100 nM compound; activity compared with reference compound; Table 1 experiment. As for the experimental part: Caspase3 in most cell extracts can be activated by the addition of 1 mM dATP through the mitochondria caspase pathway. […] Taking advantage of this feature, we use 100 nM of synthetic Smac mimetic compound to test its ability to eliminate IAPs in the Hela S100 and fully induce Caspase3 activity. The In Vitro Caspase3 assay is carried out at 30° C., incubating 100 nM compounds with 30 ug of Hela S100, 1 mM dATP, 10 uM Caspase3 fluorogenic substrate (Caspase3 Substrate II, Fluorogenic, #235425 from Calbiochem). The readout is caspase-3 activity represented by relative fluorogenic unit, which is recorded kinetically. The slope in linear region of the curve for each compound is calculated.
Percent activity data is presented by comparing activity of the test compound with activity of the reference compound in Caspase-3 activation assay in vitro. The ratio of each synthetic compound's slope versus the slope of control reflects in vitro caspase-3 activation ability of compounds.

Chain of truncated XIAP containing only BIR1, BIR2, and BIR3 domains (P98170 26-330 limits assumed): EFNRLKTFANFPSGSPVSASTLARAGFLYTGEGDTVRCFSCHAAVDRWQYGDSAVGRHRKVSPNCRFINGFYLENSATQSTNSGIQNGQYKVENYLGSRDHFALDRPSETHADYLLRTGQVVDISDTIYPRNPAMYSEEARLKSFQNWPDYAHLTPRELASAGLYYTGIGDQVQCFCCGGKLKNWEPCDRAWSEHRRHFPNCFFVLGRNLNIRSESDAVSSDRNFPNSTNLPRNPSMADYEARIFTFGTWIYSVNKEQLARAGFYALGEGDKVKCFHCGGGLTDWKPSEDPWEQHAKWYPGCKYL

As usually defined, the IC50 is the concentration that gives 50% inhibition. A lower IC50 goes with greater potency. Usually Ki stands for a dissociation constant, usually derived from enzyme kinetics or from competition with a known ligand. In the case of `CN[C@@H](C)C(=O)NC(C(=O)C1C[C@@H](NC(=O)c2cccc(C(=O)N[C@H]3CC(C(=O)N[C@@H]4CCCc5ccccc54)N(C(=O)[C@@H](NC(=O)[C@H](C)NC)C(C)(C)C)C3)c2)CC1C(=O)N[C@@H]1CCCc2ccccc21)C(C)(C)C.Cl.Cl` (stereo partly drawn) [compound 19], the IC50 with HCC461 cells turned out to be 0.007 µM. The molecule further gave a Ki in assay [1] of 0.45 µM. Further, the “% Activity at 100 nM” value in assay [2] was 120%.
